“And” between values parts separate entries of the source, which are not always exact repeats. Equal values may be shown once.
System: citric acid-induced acute cough in guinea pigs
Assay: ATP-sensitized citric acid-induced acute cough model in guinea pigs (WBP system)
Type: in vivo, guinea pig
Details: for Total cough count (CCnt): within 10 minutes, Mean ± SEM, N = 12; for Change rate of total cough count: versus solvent group; for average cough times decreased compared to the solvent group: decrease; for antitussive effect (in words): compared to the solvent group
Procedure: • Male Hartley guinea pigs: Beijing Vital River Laboratory Animal Technology Co., Ltd; • 250 μM ATP solution: Sigma, catalog number A2383; • 0.5 M citric acid solution: Sigma, catalog number C2404; • DSI Buxco Whole Body Plethysmography (WBP) system instrument: manufacturer DSI, serial numbers 100249, 990171; • Electronic balance: Mettler Toledo, serial number B844687071.
• Solvent (10% (v/v) E-TPGS aqueous solution, pH 7.4±0.1): TPGS was heated and melted into a liquid in a water bath. 10 mL of TPGS was taken and then added to 85 mL of deionized water, and the mixture was stirred to form a homogeneous solution. The pH was adjusted to 7.4±0.1 using an appropriate concentration of HCl/NaOH. The final volume was made up to 100 mL with deionized water, and the mixture was stirred until visually homogeneous. The pH was checked, and if necessary, adjusted to 7.4±0.1 using an appropriate concentration of HCl/NaOH.
The administration formulation was prepared under yellow light conditions.
The required mass of the compound was accurately weighed into an appropriate container, and slowly added to a suitable container containing 80% of the final volume of the solvent (10% (v/v) E-TPGS aqueous solution, pH 7.4±0.1), and the mixture was stirred until visually homogeneous. The solvent was added to 90% of the final volume, and the mixture was stirred until visually homogeneous. If necessary, the pH was adjusted to 7.3-7.6 with an appropriate concentration of HCl/NaOH. If necessary, the formulation was subjected to ultrasonic treatment. The solvent was then added to the final volume, and the mixture was stirred until a visually clear and homogeneous solution was obtained.
After the preparation of the administration formulation was completed, the administration formulation was aliquoted into daily doses and stored in a refrigerator at 2-8° C., protected from light, and used within 10 days. Prior to administration, the formulation was removed from the refrigerator 30 minutes in advance, and stirred for 30 minutes at room temperature and protected from light until it reached room temperature.
Preparation of dextromethorphan: the required volume for administration was calculated based on the animal's body weight. The weighting amount of dextromethorphan (DM) was determined based on the administration volume and dose. The DM was accurately weighed and dissolved in 1×PBS (Phosphate Buffered Saline) with the calculated administration volume. The solution was mixed homogeneously by shaking until a clear solution was formed, and it was prepared freshly before use.
In the experiment, the solvent (10% (v/v) E-TPGS (Vitamin E Polyethylene Glycol Succinate)) and each test compound were administered to guinea pigs by gavage 3 hours prior to citric acid nebulization. The reference compound, dextromethorphan (DM), was administered to guinea pigs by gavage 40 minutes prior to citric acid nebulization (see Table 1 for details).
At the scheduled time, male Hartley guinea pigs (300-400 g) were placed in the respiratory volume plethysmography chamber of the DSI Buxco Whole Body Plethysmography (WBP) system. After an acclimation period of 3-5 minutes, a solution of ATP with a concentration of 250 μM was nebulized and sprayed into the chamber for 2 minutes. After a 3-minute interval, a solution of citric acid with a concentration of 0.5 M was administered for 5 minutes to induce coughing. From the start of citric acid nebulization, the WBP system recorded the total cough counts (CCnt) within 10 minutes and the cough incubation period (CIP, i.e., the time from the start of citric acid induction to the appearance of the first cough).

[1] = 30 mg/kg oral single dose 3 hours before citric acid nebulization
[2] = 30 mg/kg oral, 3 hours before citric acid nebulization
[3] = 30 mg/kg oral, 3 hours before citric acid

Structure (SMILES) | Total cough count (CCnt) [1] | Cough incubation period (CIP) [2] | Change rate of total cough count [3] [%] | average cough times decreased compared to the solvent group (30 mg/kg oral) [%] | antitussive effect (in words) | Total cough count (CCnt) (63 mg/kg oral single dose 40 minutes before citric acid nebulization) | Cough incubation period (CIP) (63 mg/kg oral, 40 minutes before citric acid nebulization) | Change rate of total cough count (63 mg/kg oral, 40 minutes before citric acid) [%] | Total cough count (CCnt) (3 mg/kg oral single dose 3 hours before citric acid nebulization) | Cough incubation period (CIP) (3 mg/kg oral, 3 hours before citric acid nebulization) | Change rate of total cough count (3 mg/kg oral, 3 hours before citric acid) [%] | average cough times decreased compared to the solvent group (3 mg/kg oral) [%] | Total cough count (CCnt) (10 mg/kg oral single dose 3 hours before citric acid nebulization) | Cough incubation period (CIP) (10 mg/kg oral, 3 hours before citric acid nebulization) | Change rate of total cough count (10 mg/kg oral, 3 hours before citric acid) [%] | average cough times decreased compared to the solvent group (10 mg/kg oral) [%]
O=c1[nH]ncc(N2CCc3c(ncnc3Oc3ccc(F)cc3C(F)(F)F)C2)c1Cl [Compound 2-1] | 12.75 ± 1.86 times | 290.08 s and 290.08 ± 43.61 s | −40.70 | 40.70 | good antitussive efficacy | – | – | – | – | – | – | – | – | – | – | –
COc1ccc2c(c1)[C@]13CCCC[C@@H]1[C@H](C2)N(C)CC3 [DM, dextromethorphan, reference compound] | – | – | – | – | – | 12.17 times and 12.17 ± 2.76 ^c times | 291.00 s and 291.00 ± 41.65 s | −43.41 | – | – | – | – | – | – | – | –
O=c1c(-c2ccc(O)cc2)coc2cc(O)cc(O)c12 [Compound 3-1] | 11.83 ± 2.02 times | 281.67 s and 281.67 ± 37.84 s | −44.96 | 44.96 | good antitussive efficacy | – | – | – | – | – | – | – | – | – | – | –
O=C(c1ccc(F)cc1C(F)(F)F)c1cnc2n1CCN(c1cnn(COP(=O)(O)O)c(=O)c1Cl)C2 [Compound 1, (5-chloro-4-(3-(4-fluoro-2-(trifluoromethyl)benzoyl)-5,6-dihydroimidazo[1,2-a]pyrazin-7(8H)-yl)-6-oxopyridazin-1(6H)-yl)methyl Dihydrogen Phosphate] | 10.73 times and 10.73 ± 1.71 times | 293.75 s and 293.75 ± 33.66 s | −50.11 | 50.11 | good antitussive effect | – | – | – | 17.00 times and 17.00 ± 2.11 times | 234.42 s and 234.42 ± 24.11 s | −20.93 | 20.93 | 13.42 times and 13.42 ± 1.18 times | 283.67 s and 283.67 ± 42.98 s | −37.60 | 37.60

Reference: US20250082655A1, “USE OF HETEROCYCLIC COMPOUND” (WUHAN CREATERNA SCIENCE AND TECHNOLOGY CO., LTD., priority 2022, published 2025)
